US5386030A, “Antiviral (phosphonomethoxy)methoxy purine/pyrimidine derivatives” (Institute of Organic Chemistry and Biochemistry of the …, priority 1993, dated 1995)
Values after ≈ are worked out from the molar mass of the structure shown. Counter-ions that a name gives are not always drawn. Like-named read-outs stand apart in the source and are kept apart here.

Legend:
[1] = system: herpes simples virus-2; assay: survival of mice inoculated with herpes simplex virus-2; type: in vivo
Description: A preferred example of one of these compounds, known as (S)-HPMPA (Formula V) was disclosed by DeClercq, et al., in Nature, 323: 464-467 (1986) and earlier by Holy, et al, Nucleic Acids Research, Symposium Series No. 14, pp. 277-278 (1984). Phosphonate compounds which are HPMPA analogs are described in South African Patent 1987/8607. […] In a 21 day protocol 30% of a group of animals treated i.p. with 50 mg/kg/day of (S)-HPMPA survived. [drawing 5]

[2] = system: HCMV; assay: plaque reduction assay, HCMV strain AD169 (MRC-5 cells); type: cell-based, Human cytomegalovirus (strain AD169); conditions: for IC50: read-out: ID50 HCMV
Description: (§1) The compounds are tested for activity against the herpes simplex stains using a stock solution of each compound freshly prepared. Appropriate dilution of each compound are made in 10% EMEM before usage. The antiviral efficacy of each compound is determined using the plaque reduction assay described above. Briefly, tissue culture 24-well plates, with approximately 50 plaque forming units of HSV per 0.1 ml, and the virus absorbed for 1 hour, with intermittent shaking. After removal of the inoculum, 1 ml of 10% EMEM containing two-fold dilutions of the appropriate drug are added in triplicates. Triplicate wells/plate receives no drug and are used as a virus control. After a 48-hour incubation period, at 37° C. in a 5% CO2 atmosphere, the overlay medium is removed, the cells are stained as described above, and plaques are counted. The counts of triplicate wells are averaged, and the number of plaques in the presence of each drug dilution are calculated.
Human cytomegalovirus (HCMV) (strain AD169) was grown and titered at 37° C. in human embryonic lung (diploid) cells, MRC-5. The activity of compounds against HCMV was determined by using the procedure for the plaque reduction assay described above.
(§2) The antiviral potency of the drug is determined by ID50, the drug concentration necessary to reduce the number of plaques by 50% of those in the virus control cultures.

[3] = system: HSV-2; assay: plaque reduction assay, HSV-2 (vero cells); type: cell-based, herpes simplex virus II; conditions: for IC50: 48 h
Description: (§3) Herpes simplex virus (HSV) strains were grown and titered at 37° C. in vero cells (African Green Monkey Kidney cells) and used for virus work before the tenth passage.
(§4) Cells were grown and maintained in Earle's Minimum Essential Medium (EMEM), Gibco Laboratories, supplemented with 0.75% sodium bicarbonate, 2 mM 1-glutamine, Pen-strep. and 5-10% fetal calf serum.
(§5) The titer of HSV strains is determined by a plaque titration method (Roizman and Roane, Virology, 115: 75-79, 1961). Tissue culture 24-well petri dishes are seeded with cells and used for assays when approximately 75% monolayer. Volumes (0.1 ml) of logarithmic dilutions of the virus strain are inoculated onto each of triplicate wells, and absorbed for one hour with intermittent shaking. The inoculum thereafter is removed, and 1 ml of 5-10% EMEM containing 0.3% human immune serum globulin is added. After a 48 hour incubation period at 37° C. in a 5% CO2 atmosphere, the overlay medium is removed and the cell sheets stained with Giemsa stain. The number of plaques is counted, the triplicate is averaged, and the number of plaque-forming units per ml is calculated.
as §1, §2

[4] = system: HSV-1; assay: plaque reduction assay, HSV-1 (vero cells); type: cell-based, herpes simplex virus I; conditions: for IC50: 48 h, read-out: ID50 HSV-1
Description: as §3, §4, §5
as §1, with “calculated. […]” for “calculated.”

[5] = system: MuLV; assay: UV-XC plaque assay, MuLV (SC-1 cells); type: cell-based, murine leukemia virus; conditions: for IC50: Murine leukemia virus
Description: The compounds were evaluated for antiviral activity against murine leukemia virus (MuLV) strains using the UV-XC plaque assay (Rowe, et al., Virology, 42: 1136, 1970).
The MuLV strains were grown in feral mouse cells (SC-1) and used for antiviral tests using the UV-XC plaque assay. Briefly, SC-1 cells are grown as monolayers in 4-well tissue culture plates and inoculated with approximately 50-100 plaque forming units of MuLV in 0.5 ml of 5% EMEM containing 20 μg/ml DEAE/Dextran. After 1 hour adsorption, the inoculum is removed and 5 ml of 5% EMEM containing three-fold dilutions of the appropriate drug are added. Five days later, the cultures are UV-irradiated with an ultraviolet lamp and rat XC sarcoma cells are added to the cultures. Three-four days after UV-irradiation, the cell cultures are stained with Giemsa stain and the plaques are enumerated. Antiviral activity is expressed in terms of the reduction in the mean number of UV-XC plaques counted in the drug treated, virus-infected cultures compared with mean number of plaques counted in untreated, virus-infected control cultures.
as §2

[6] = Human alphaherpesvirus 2, Table 2, drug concentration reducing plaques by 50%, vero cells, read-out: ID50 HSV-2
[7] = SC1, Table 2, UV-XC plaque assay, SC-1 cells, read-out: ID50 MULV
[8] = Human betaherpesvirus 5, MRC5, 48 h, Table 2, strain AD169, MRC-5 cells

Compound: Nc1ncnc2c1ncn2C[C@@H](CO)OCP(=O)(O)O [(S)-HPMPA]
- animals survived ([1]; HSV-2, i.p., 50 mg/kg/day, 21 day protocol): 30%
- activity in mice inoculated with herpes simplex virus-2 (in words) ([1]; HSV-2, in applicant's hands): only slightly active

Compound: Nc1nc2c(ncn2COCCO)c(=O)[nH]1 [ACV, acyclovir, reference compound]
- IC50 ([2]; Human betaherpesvirus 5, MRC5, 48 h, Table 1, strain AD169, MRC-5 cells): 40 µg/mL (≈ 178 µM)
- IC50 ([3]; Human alphaherpesvirus 2, Table 1, drug concentration reducing plaques by 50%, vero cells, read-out: ID50 HSV2): 0.7 µg/mL (≈ 3.11 µM)
- IC50 [3, 6]: 0.35 µg/mL (≈ 1.55 µM)
- IC50 ([4]; Human alphaherpesvirus 1, Table 1, drug concentration reducing plaques by 50%, vero cells): 0.6 µg/mL (≈ 2.66 µM)
- IC50 [5, 7]: > 100 µg/mL

Compound: N.Nc1ncnc2c1ncn2OCOCP(=O)(O)O [Compound 4, 9-[(Phosphonomethoxy)methoxy]adenine ammonium salt]
- HSV-2 activity (in words) [3]: little activity
- IC50 ([3]; Human alphaherpesvirus 2, Vero, read-out: ID50 against HSV-2): > 100 µg/mL
- activity against MuLV (in words) [5]: good activity
- IC50 ([5]; SC-1, read-out: ID50 against MuLV): 1.5 µg/mL

Compound: N.Nc1nc2c(ncn2OCOCP(=O)(O)O)c(=O)[nH]1 [Compound 14, 9-[(Phosphonomethoxy)methoxy]guanine ammonium salt]
- IC50 ([2]; Human betaherpesvirus 5, AD169, MRC5, 48 h): 0.2 µg/mL
- HSV-2 activity (in words) [3]: comparable to acyclovir (ACV)
- IC50 ([3]; Human alphaherpesvirus 2, Vero, read-out: ID50 HSV2): 1.3 µg/mL
- IC50 ([4]; Human alphaherpesvirus 1, Vero): 2.2 µg/mL
- HSV-1 activity (in words) ([4]; compared with ACV): comparable to acyclovir (ACV)

Compound: Nc1ncnc2c1ncn2OC(CO)OCP(=O)(O)O (centres unmarked) [Compound 21, ammonium salt]
- IC50 [2, 8]: 1 µg/mL
- HCMV activity (in words) ([2]; compared with DHPG): comparable to DHPG
- IC50 [3, 6]: 2.6 µg/mL
- IC50 [5, 7]: 1.5 µg/mL

Compound: Nc1nc2c(ncn2COC(CO)CO)c(=O)[nH]1 [DHPG, reference compound]
- IC50 [2, 8]: 0.4 µg/mL (≈ 1.57 µM)
- IC50 [3, 6]: 0.2 µg/mL (≈ 0.784 µM)
- IC50 [5, 7]: > 100 µg/mL
